Test systems include COLO 205; DU-145; HCT-116; HCT-15; HL-60; HOP-62; Hs-578T; IGROV-1; K562; MDA-MB-231; NCI-H226; NCI-H460; RPMI-8226; SR; SW-620; TK-10; U-251; UACC-62; A549; Malme-3M.
Holding throughout (test): DTP human tumour cell line panel, 48 h

As usually defined, the GI50 is the concentration that inhibits growth by half.

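Grown in 96-well plates, cells were treated for 48 hours with each compound at five concentrations. Insufficient inhibition: endpoint recorded as highest concentration tested. GI50: concentration for 50% inhibition of growth.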 The source made the active and inactive calls. No stated cut-off is given here; in the data, active = GI50 up to about 1.1 µM and inactive = higher.

For the molecule `CC(C)[Si]1(C(C)C)OCC2OC3(CO)C(Oc4nc(=O)ccn43)C2O[Si](C(C)C)(C(C)C)O1` (stereo not drawn), the GI50 in the assay with COLO 205 was 9.44 µM (inactive); with DU-145, 14 µM (inactive); with HCT-116 it was 10.9 µM (inactive); in the assay with HCT-15, 15 µM; in the assay on HL-60 it was 6.17 µM (inactive); with HOP-62, 15 µM (inactive). The GI50 is 22.4 µM (inactive) in the assay with Hs-578T; 17.3 µM (inactive) in the assay on IGROV-1; 21 µM (inactive) in the assay with K562; 10.2 µM (inactive) in the assay with MDA-MB-231; 15.2 µM (inactive) with NCI-H226; 15 µM (inactive) with NCI-H460. The GI50 in the assay with RPMI-8226 was 5.81 µM (inactive); in the assay on SR, 15.5 µM (inactive); in the assay with SW-620, 15.5 µM (inactive); in the assay on TK-10, 16.6 µM (inactive); in the assay on U-251 it was 14.2 µM (inactive); in the assay on UACC-62, 12.8 µM (inactive).

With `c1ccc(CN2CCC3(CC2)SSC2(CCN(Cc4ccccc4)CC2)S3)cc1`, the GI50 in the assay with A549 is 27.7 µM (inactive); in the assay on COLO 205, 17 µM (inactive); in the assay with DU-145, > 100 µM (inactive); with HCT-116 it was 50.8 µM (inactive); with HCT-15, 38.8 µM; with HL-60 it was 78 µM (inactive). Further, the GI50 in the assay with HOP-62 is > 100 µM (inactive); with Hs-578T it was 17.7 µM (inactive); in the assay with IGROV-1, > 100 µM (inactive); in the assay with K562 it was 71.6 µM (inactive); with MDA-MB-231 it was > 100 µM (inactive); in the assay on Malme-3M, 53.7 µM (inactive). For the same molecule, the GI50 in the assay with NCI-H460 was 25.6 µM (inactive); in the assay on RPMI-8226 it was 20.1 µM (inactive); in the assay on SR, 28.8 µM (inactive); with SW-620, > 100 µM (inactive); in the assay with TK-10, 64.4 µM (inactive); in the assay with U-251 it was > 100 µM (inactive). In addition, the GI50 in the assay with UACC-62 is 82.8 µM (inactive).

For the molecule `Nc1ncc2c(n1)-c1ccccc1OC2N1CCCCC1` (stereo not drawn), the GI50 in the assay with A549 is > 100 µM (inactive); in the assay with COLO 205, > 100 µM (inactive); with DU-145, > 100 µM (inactive); with HCT-116 it was > 100 µM (inactive); in the assay with HCT-15, over 100 µM; with HL-60 it was > 100 µM (inactive). In addition, the GI50 in the assay on Hs-578T, in the assay with IGROV-1, in the assay with MDA-MB-231, in the assay with NCI-H226, in the assay with NCI-H460 and with RPMI-8226 was > 100 µM (inactive) in each case. Moreover, the GI50 with SR, in the assay with SW-620, in the assay on TK-10, with U-251 and with UACC-62 was > 100 µM (inactive) throughout.

Consider `OC1(c2ccccc2)C2CC=CC2C1(c1ccccc1)c1ccccc1` (stereo not drawn), for which the GI50 is 25.2 µM (inactive) in the assay with A549; 18.4 µM (inactive) in the assay on COLO 205; 61.7 µM (inactive) in the assay with DU-145; 31.2 µM (inactive) with HCT-116; 28.6 µM with HCT-15; 27.8 µM (inactive) with HL-60. Besides, the GI50 in the assay with HOP-62 was 70.3 µM (inactive); in the assay with Hs-578T, 38.3 µM (inactive); in the assay with IGROV-1, 20.1 µM (inactive); in the assay with K562, 35.6 µM (inactive); in the assay on MDA-MB-231, 40.6 µM (inactive); with Malme-3M it was 19.5 µM (inactive). For the same molecule, the GI50 in the assay with NCI-H460 is 27 µM (inactive); in the assay with RPMI-8226, 25.6 µM (inactive); in the assay on SR, 19.2 µM (inactive); in the assay with SW-620, 30.2 µM (inactive); in the assay with TK-10, 29.6 µM (inactive); with U-251 it was 32.5 µM (inactive). In the assay with UACC-62, the GI50 is 23.9 µM (inactive).

Regarding `NC1CC(Cl)c2c(Cl)sc(Cl)c21` (stereo not drawn), the GI50 in the assay on A549 was > 100 µM (inactive); with COLO 205, > 100 µM (inactive); with DU-145 it was > 100 µM (inactive); in the assay on HCT-116 it was > 100 µM (inactive); in the assay with HCT-15 it was over 100 µM; in the assay on HL-60, > 100 µM (inactive). Besides, the GI50 with HOP-62, in the assay with Hs-578T, in the assay with IGROV-1, with K562, in the assay on MDA-MB-231 and in the assay with Malme-3M was > 100 µM (inactive) in each case. In addition, the GI50 in the assay with NCI-H226 is > 100 µM (inactive); in the assay on NCI-H460, > 100 µM (inactive); in the assay with SR it was 61.8 µM (inactive); in the assay with SW-620, > 100 µM (inactive); with TK-10 it was > 100 µM (inactive); in the assay on U-251, > 100 µM (inactive). Besides, in the assay with UACC-62, the GI50 is > 100 µM (inactive).

On to `Cc1nn(C(=O)Cc2ccccc2)c2c1C(c1ccc([N+](=O)[O-])cc1)SC(=N)N2` (stereo not drawn), for which the GI50 with A549 was > 100 µM (inactive); in the assay with COLO 205 it was > 100 µM (inactive); in the assay on DU-145, > 100 µM (inactive); with HCT-116, > 100 µM (inactive); in the assay with HCT-15, over 100 µM; in the assay on HL-60, > 100 µM (inactive). The GI50 in the assay on HOP-62, in the assay on Hs-578T, with IGROV-1, with K562, in the assay with MDA-MB-231 and in the assay on Malme-3M was > 100 µM (inactive) in each case. Besides, the GI50 in the assay with NCI-H460, in the assay with RPMI-8226, in the assay with SR, with SW-620, with TK-10 and with UACC-62 was > 100 µM (inactive) in each case.

On to `O=C(O)CC1(CC(=O)O)Nc2ccccc2SC1=O`, for which the GI50 in the assay on A549 was > 100 µM (inactive); in the assay with COLO 205, > 100 µM (inactive); in the assay on DU-145 it was > 100 µM (inactive); in the assay with HCT-116 it was > 100 µM (inactive); with HCT-15 it was over 100 µM; in the assay on HOP-62 it was > 100 µM (inactive). For the same molecule, the GI50 in the assay on Hs-578T, with IGROV-1, in the assay with K562, with MDA-MB-231, with Malme-3M and in the assay on NCI-H226 was > 100 µM (inactive) in each case. Further, the GI50 in the assay on NCI-H460, in the assay on RPMI-8226, in the assay on SR, in the assay with SW-620, with TK-10 and in the assay on U-251 was > 100 µM (inactive) each time. Also, in the assay with UACC-62, the GI50 is > 100 µM (inactive).

As to `CN1c2ccccc2C2=C(c3ccccc3)CC[C@@H](C(=O)N3C4CC5CC[C@@]4(CS3(=O)=O)C5(C)C)[C@@H]21` (stereo partly drawn), the GI50 in the assay on A549 was > 100 µM (inactive); with COLO 205 it was > 100 µM (inactive); in the assay on DU-145 it was > 100 µM (inactive); in the assay with HCT-116 it was 34.2 µM (inactive); with HCT-15, over 100 µM; with HOP-62 it was > 100 µM (inactive). Also, the GI50 in the assay on Hs-578T is > 100 µM (inactive); in the assay with IGROV-1, > 100 µM (inactive); in the assay with K562, 10.5 µM (inactive); with MDA-MB-231, > 100 µM (inactive); in the assay on Malme-3M it was > 100 µM (inactive); in the assay on NCI-H226 it was > 100 µM (inactive). Further, the GI50 in the assay with NCI-H460, in the assay with RPMI-8226, with SR, in the assay with SW-620, in the assay on TK-10 and in the assay with U-251 was > 100 µM (inactive) throughout. The GI50 in the assay on UACC-62 was > 100 µM (inactive).

(Values after ChEMBL document CHEMBL1201862, “PubChem BioAssay data set” (2004).)
